Reference: patent US9808466B2, “Macrocyclic compounds as protein kinase inhibitors” (Fundación Centro Nacional de Investigaciones Oncologicas …, priority 2011, dated 2017)
Like-named read-outs stand apart in the source and are kept apart here.

Tests used:
[1] = molecular target: T1, mTOR (Homo sapiens, UniProt P42345); experiment: mTOR assay (LanthaScreen kinase activity assay); type: biochemical
T1 construct: purchased Invitrogen PV4754
Protocol: The enzymatic mTOR activity was measured using a LanthaScreen™ kinase activity assay (Invitrogen). The enzyme was purchased from Invitrogen (PV4754), as well as the GFP-labeled substrate (4EBP1-GFP; PV4759) and the Tb-anti-p4EBP1(pThr46) antibody (PV4757). The assay was performed in 50 mM HEPES buffer, pH 7.5, containing 1.5 mM MnCl2, 10 mM MgCl2, 1 mM EGTA, 2.5 mM DTT and 0.01% Tween-20. The concentration of the assay components were the following: 0.24 nM mTOR kinase, 400 nM 4EBP1-GFP, […] and serial dilutions of the compound (inhibitor) to be evaluated. After 1 h incubation at room temperature, 20 mM EDTA was used to stop the reaction and terbium-labeled antibody (4 nM) added to detect phosphorylated product. The antibody associates with the phosphorylated product resulting in an increased TR-FRET value. The TR-FRET value (a dimensionless number) was calculated as the ratio of the acceptor signal (GFP, emission at 520 nm) to the donor signal (terbium, emission at 495 nm). Values were plotted against the inhibitor concentration and fitted to a sigmoid dose-response curve using GraphPad software.

[2] = molecular target: T2, PI3K (p110α/p85α) (Homo sapiens, UniProt P42336); experiment: PI3K activity assay (ADP Hunter Plus); type: biochemical
T2 construct: purchased Carna Biosciences 07CBS-0402A
T2 sequence (P42336 whole entry): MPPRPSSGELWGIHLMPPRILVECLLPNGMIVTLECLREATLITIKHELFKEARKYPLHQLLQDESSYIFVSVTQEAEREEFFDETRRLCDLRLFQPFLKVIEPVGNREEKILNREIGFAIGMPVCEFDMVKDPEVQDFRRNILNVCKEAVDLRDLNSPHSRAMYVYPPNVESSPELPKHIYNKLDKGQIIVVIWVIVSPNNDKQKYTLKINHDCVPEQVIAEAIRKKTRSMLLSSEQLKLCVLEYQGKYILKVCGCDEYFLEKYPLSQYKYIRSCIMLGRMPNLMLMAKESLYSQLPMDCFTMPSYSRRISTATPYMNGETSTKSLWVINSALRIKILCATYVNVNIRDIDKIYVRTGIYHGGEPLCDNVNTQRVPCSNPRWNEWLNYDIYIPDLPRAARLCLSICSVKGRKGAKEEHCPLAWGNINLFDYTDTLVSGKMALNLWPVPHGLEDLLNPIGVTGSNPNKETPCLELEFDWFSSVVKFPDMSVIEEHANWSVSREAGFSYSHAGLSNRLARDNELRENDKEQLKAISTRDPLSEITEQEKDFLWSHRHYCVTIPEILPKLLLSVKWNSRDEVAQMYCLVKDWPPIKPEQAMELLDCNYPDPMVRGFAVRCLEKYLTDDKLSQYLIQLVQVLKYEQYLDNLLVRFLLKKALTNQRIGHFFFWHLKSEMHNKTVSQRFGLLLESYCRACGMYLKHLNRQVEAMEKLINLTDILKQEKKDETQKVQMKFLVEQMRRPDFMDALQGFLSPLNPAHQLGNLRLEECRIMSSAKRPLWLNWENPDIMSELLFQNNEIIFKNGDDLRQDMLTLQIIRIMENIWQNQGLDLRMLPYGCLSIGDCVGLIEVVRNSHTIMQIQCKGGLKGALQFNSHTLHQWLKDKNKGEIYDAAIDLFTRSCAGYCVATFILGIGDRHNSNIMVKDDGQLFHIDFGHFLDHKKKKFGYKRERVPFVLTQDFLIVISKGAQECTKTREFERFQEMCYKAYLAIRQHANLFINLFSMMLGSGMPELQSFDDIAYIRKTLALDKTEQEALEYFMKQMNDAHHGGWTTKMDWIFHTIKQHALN
T2 sequence (P27986 whole entry partner): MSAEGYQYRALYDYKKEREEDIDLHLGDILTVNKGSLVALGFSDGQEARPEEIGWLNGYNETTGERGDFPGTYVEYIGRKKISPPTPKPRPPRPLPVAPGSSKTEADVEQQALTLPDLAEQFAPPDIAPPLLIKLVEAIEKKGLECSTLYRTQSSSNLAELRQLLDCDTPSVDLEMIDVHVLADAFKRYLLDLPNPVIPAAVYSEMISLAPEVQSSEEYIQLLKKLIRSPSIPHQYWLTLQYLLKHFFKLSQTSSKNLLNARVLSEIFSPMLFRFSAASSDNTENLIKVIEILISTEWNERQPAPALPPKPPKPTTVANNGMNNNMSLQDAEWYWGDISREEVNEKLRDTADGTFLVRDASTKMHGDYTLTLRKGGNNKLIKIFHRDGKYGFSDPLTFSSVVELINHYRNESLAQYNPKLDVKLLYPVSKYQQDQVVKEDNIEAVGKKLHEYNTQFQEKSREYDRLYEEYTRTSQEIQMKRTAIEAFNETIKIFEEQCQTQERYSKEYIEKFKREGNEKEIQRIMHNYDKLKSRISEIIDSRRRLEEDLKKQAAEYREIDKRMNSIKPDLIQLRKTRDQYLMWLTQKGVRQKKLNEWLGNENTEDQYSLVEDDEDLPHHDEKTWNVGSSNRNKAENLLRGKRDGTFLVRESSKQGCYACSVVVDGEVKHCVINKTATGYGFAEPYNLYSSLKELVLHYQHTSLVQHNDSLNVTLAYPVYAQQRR
Protocol: The kinase activity was measured by using the commercial ADP Hunter™ Plus assay available from DiscoveRx (#33-016), which is a homogeneous assay to measure the accumulation of ADP, a universal product of kinase activity. […] Reaction was carried out for 1 hour at 25° C. Reagent A and B were sequentially added to the wells and plates were incubated for 30 min at 37° C. Fluorescence counts were read in a Victor instrument (Perkin Elmer) with the recommended settings (544 and 580 nm as excitation and emission wavelengths, respectively). Values were normalized against the control activity included for each enzyme (i.e., 100% PI3 kinase activity, without compound). These values were plotted against the inhibitor concentration and were fit to a sigmoid dose-response curve by using the Graphad software.

[3] = molecular target: T3, PIM-1 (Homo sapiens, UniProt P11309); experiment: PIM-1 biochemical assay (ADP Hunter)
T3 construct: histidine tag (C); made in house
T3 sequence (P11309 whole entry): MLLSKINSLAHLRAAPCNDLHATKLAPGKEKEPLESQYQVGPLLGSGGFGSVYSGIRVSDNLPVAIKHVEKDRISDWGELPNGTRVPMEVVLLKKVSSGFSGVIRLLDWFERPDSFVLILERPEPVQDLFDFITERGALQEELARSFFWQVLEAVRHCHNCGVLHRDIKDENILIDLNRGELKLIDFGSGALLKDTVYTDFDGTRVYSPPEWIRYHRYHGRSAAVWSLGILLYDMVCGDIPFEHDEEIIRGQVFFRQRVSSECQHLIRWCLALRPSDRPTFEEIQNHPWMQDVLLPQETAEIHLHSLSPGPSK
From the text: The biochemical assay to measure PIM-1 activity relies on the ADP Hunter assay kit (DiscoveRx Corp., Cat. #90-0077), that determines the amount of ADP as direct product of the kinase enzyme activity.
The enzyme has been expressed and purified in-house as a recombinant human protein with a C-terminal histidine tag. The protein is active and stable.
Assay conditions were as indicated by the kit manufacturers with the following adaptations for the kinase activity step: • Kinase assay buffer and assay volume stay as recommended (15 mM HEPES, pH 7.4, 20 mM NaCl, 1 mM EGTA, 0.02% Tween 20, 10 mM MgCl2 and 0.1 mg/ml bovine γ-globulins/75 μl assay volume) • Incubation time and temperature: 60 min at 30° C. • PIM-1 concentration: 50 pg/μl • ATP concentration: 100 μM • PIM-1 substrate peptide: PIMtide ([…]) (SEQIDNO. 1) • Peptide concentration: 60 μM • Positive control for kinase activity inhibition: 1-10 μM Staurosporine • DMSO concentration have to stay below 2% during the kinase reaction
Assays were performed in either 96 or 384-well plates. The final outcome of the coupled reactions provided by the kit is the release of the fluorescent product Resorufin and has been measured with a multilabel HTS counter VICTOR V (PerkinElmer) using an excitation filter at 544 nm and an emission filter at 580 nm.

[4] = read-out: mTOR activity, IC50 (semi-quantitative class)
[5] = read-out: mTOR actual IC50 (in parentheses)
[6] = read-out: PI3K alpha activity, IC50 (semi-quantitative class)
[7] = read-out: PI3K alpha actual IC50 (in parentheses)
[8] = PIM1, read-out: PIM-1 activity, IC50 (semi-quantitative class)
[9] = read-out: mTOR IC50 (in parentheses)
[10] = read-out: mTOR activity (semi-quantitative IC50)
[11] = read-out: PI3K alpha IC50 (in parentheses)
[12] = read-out: PI3K alpha activity (semi-quantitative IC50)
[13] = read-out: PIM-1 IC50 (in parentheses)
[14] = read-out: PIM-1 activity (semi-quantitative IC50)
[15] = PIM1, read-out: PIM-1 actual IC50 (in parentheses)

T1 sequence (P42345 1360-2549 limits assumed): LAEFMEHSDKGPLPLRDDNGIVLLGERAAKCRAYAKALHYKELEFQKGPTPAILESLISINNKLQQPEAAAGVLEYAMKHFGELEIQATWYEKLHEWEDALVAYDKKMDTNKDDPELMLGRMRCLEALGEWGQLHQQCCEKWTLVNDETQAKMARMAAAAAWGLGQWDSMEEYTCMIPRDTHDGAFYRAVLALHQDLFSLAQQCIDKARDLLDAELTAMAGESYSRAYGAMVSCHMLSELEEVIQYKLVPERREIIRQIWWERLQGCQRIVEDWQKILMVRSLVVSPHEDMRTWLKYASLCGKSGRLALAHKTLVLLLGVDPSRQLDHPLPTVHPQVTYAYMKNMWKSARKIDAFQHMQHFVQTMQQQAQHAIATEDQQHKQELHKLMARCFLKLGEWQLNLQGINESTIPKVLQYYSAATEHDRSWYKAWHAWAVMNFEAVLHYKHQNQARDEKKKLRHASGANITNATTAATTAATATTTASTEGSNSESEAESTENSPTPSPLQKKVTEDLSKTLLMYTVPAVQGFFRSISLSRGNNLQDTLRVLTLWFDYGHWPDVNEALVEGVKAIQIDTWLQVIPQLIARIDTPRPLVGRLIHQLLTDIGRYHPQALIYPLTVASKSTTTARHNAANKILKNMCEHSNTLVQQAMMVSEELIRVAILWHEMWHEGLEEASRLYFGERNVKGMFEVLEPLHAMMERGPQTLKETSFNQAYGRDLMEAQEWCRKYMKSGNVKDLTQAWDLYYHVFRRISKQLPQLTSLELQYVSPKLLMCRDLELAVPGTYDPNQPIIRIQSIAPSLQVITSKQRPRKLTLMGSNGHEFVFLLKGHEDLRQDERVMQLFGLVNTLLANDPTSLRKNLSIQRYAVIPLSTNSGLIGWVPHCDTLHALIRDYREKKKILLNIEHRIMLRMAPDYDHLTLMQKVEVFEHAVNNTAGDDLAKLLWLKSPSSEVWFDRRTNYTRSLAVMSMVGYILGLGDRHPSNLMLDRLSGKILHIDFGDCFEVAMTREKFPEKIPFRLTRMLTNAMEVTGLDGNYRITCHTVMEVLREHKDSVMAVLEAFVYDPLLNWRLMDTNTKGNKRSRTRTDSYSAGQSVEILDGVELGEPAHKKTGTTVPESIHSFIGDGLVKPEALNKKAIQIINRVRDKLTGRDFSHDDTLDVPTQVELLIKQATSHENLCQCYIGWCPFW

For `COc1ncc2cc1NS(=O)(=O)c1cccc(c1)C(=O)NCCn1cc(cn1)-c1ccnc3ccc-2cc13` [compound 19], which IC50 [1, 4] is on record?
The IC50 was under 100 nM.

And the IC50 [1, 5]?
The IC50 was 21 nM.

What about the IC50 [2, 6] of the same compound?
Its IC50 is under 100 nM.

And the IC50 [2, 7]?
The IC50 was 4 nM.

And the IC50 [3, 8]?
The IC50 was over 1000 nM.

With `COc1ncc2cc1NS(=O)(=O)c1cccc(c1)C(=O)NCCn1cc(cn1)-c1ncnc3c1SC2=C3` [compound 36] as the compound, how does the IC50 [1, 4] read?
Its IC50 is over 1000 nM.

And the IC50 [2, 6]?
The IC50 was 100 to 1000 nM.

What about the IC50 [3, 8] of the same compound?
The IC50 was 100 to 1000 nM.

With `COc1ncc2cc1NS(=O)(=O)c1ccc(F)c(c1)C(=O)NCC1=CC=C(S1)c1ncnc3c1SC2=C3C` [compound 90] as the compound, how does the IC50 [1, 9] read?
Its IC50 is 56 nM.

And the IC50 [1, 10]?
Its IC50 is under 100 nM.

What about the IC50 [2, 11] of the same compound?
The IC50 was 1.8 nM.

And the IC50 [2, 12]?
The IC50 was under 100 nM.

And the IC50 [3, 13]?
The IC50 was 27 nM.

And the IC50 [3, 14]?
The IC50 was under 100 nM.

Which results are given for `COc1ncc2cc1NS(=O)(=O)c1cccc(c1)C(=O)NCc1cccc(c1)-c1ccnc3ccc-2nc13` [compound 35]?
IC50 [1, 4]: < 100 nM; IC50 [1, 5]: 16 nM; IC50 [2, 6]: < 100 nM; IC50 [2, 7]: 5 nM; IC50 [3, 8]: > 1000 nM

`COc1ncc2cc1NS(=O)(=O)c1cccc(c1)C(=O)NC[C@@H]1CN(CCO1)c1ncnc3c1SC2=C3C` [compound 91] was tested. Which IC50 [1, 10] did it give?
The IC50 was 100 to 1000 nM.

And the IC50 [2, 11]?
The IC50 was 10 nM.

And the IC50 [2, 12]?
The IC50 was under 100 nM.

And the IC50 [3, 13]?
The IC50 was 47 nM.

What about the IC50 [3, 14] of the same compound?
Its IC50 is under 100 nM.

For `O=C1NCc2cccc(c2)-c2cnn3ccc(nc23)-c2cnc(O)c(c2)NS(=O)(=O)c2cccc1c2` [compound 85], which IC50 [1, 10] is on record?
Its IC50 is over 1000 nM.

What about the IC50 [2, 12] of the same compound?
The IC50 was 100 to 1000 nM.

What about the IC50 [3, 14] of the same compound?
Its IC50 is over 1000 nM.

What does the source list for `COCCOc1ccc2cc1C(=O)NCC1=CC=C(S1)c1ncnc3c1SC(=C3)c1cnc(OC)c(c1)NS2(=O)=O` [compound 93]?
IC50 [1, 9]: 32 nM; IC50 [1, 10]: < 100 nM; IC50 [2, 12]: 100 to 1000 nM; IC50 [3, 14]: > 1000 nM

Which IC50 [1, 4] does the source give for `COc1ncc2cc1NS(=O)(=O)c1cccc(c1)C(=O)NCc1cncc(c1)-c1ccnc3c1SC2=C3` [compound 62] here?
The IC50 was over 1000 nM.

And the IC50 [2, 6]?
The IC50 was 100 to 1000 nM.

And the IC50 [3, 8]?
The IC50 was under 100 nM.

And the IC50 [3, 15]?
The IC50 was 31 nM.

What does the source list for `O=C1NCc2cncc(c2)-c2ncnc3c2SC(=C3)c2cnc(Cl)c(c2)NS(=O)(=O)c2cccc1c2` [compound 58]?
IC50 [1, 4]: > 1000 nM; IC50 [2, 6]: < 100 nM; IC50 [2, 7]: 3.6 nM; IC50 [3, 8]: 100 to 1000 nM

Which IC50 [1, 4] does the source give for `COc1ncc2cc1NS(=O)(=O)c1cc(cc(C(F)(F)F)c1)C(=O)NCc1cncc(c1)-c1ncnc3c1SC2=C3` [compound 53] here?
The IC50 was over 1000 nM.

What about the IC50 [2, 6] of the same compound?
The IC50 was over 1000 nM.

And the IC50 [3, 8]?
Its IC50 is over 1000 nM.

What does the source list for `COc1ncc2cc1NS(=O)(=O)c1cccc(c1)C(=O)NCc1cc(ccn1)-c1ccnc3ccc-2cc13` [compound 15]?
IC50 [1, 4]: 100 to 1000 nM; IC50 [2, 6]: < 100 nM; IC50 [2, 7]: 20 nM; IC50 [3, 8]: > 1000 nM

`COc1ncc2cc1NS(=O)(=O)c1cccc(c1)C(=O)NCc1cccc(c1F)-c1ccnc3ccc-2cc13` [compound 5] was tested. Which IC50 [1, 4] did it give?
Its IC50 is 100 to 1000 nM.

What about the IC50 [2, 6] of the same compound?
Its IC50 is under 100 nM.

What about the IC50 [2, 7] of the same compound?
Its IC50 is 23 nM.

What about the IC50 [3, 8] of the same compound?
The IC50 was over 1000 nM.

`COc1ncc2cc1NS(=O)(=O)c1cccc(c1)C(=O)NCc1cncc(c1)-c1c[nH]c3ncc-2cc13` [compound 20] was tested. Which IC50 [1, 4] did it give?
The IC50 was 100 to 1000 nM.

What about the IC50 [2, 6] of the same compound?
Its IC50 is under 100 nM.

And the IC50 [2, 7]?
Its IC50 is 80 nM.

And the IC50 [3, 8]?
The IC50 was over 1000 nM.

Which results are given for `COc1ncc2cc1NS(=O)(=O)c1cccc(c1)C(=O)NCc1cc(F)cc(c1)-c1ncnc3c1SC2=C3C` [compound 92]?
IC50 [1, 10]: > 1000 nM; IC50 [2, 11]: 15 nM; IC50 [2, 12]: < 100 nM; IC50 [3, 14]: > 1000 nM

With `COc1ncc2cc1NS(=O)(=O)c1cccc(c1)C(=O)NCC1=CC=C(S1)c1ncnc3c1SC2=C3` [compound 55] as the compound, how does the IC50 [1, 4] read?
The IC50 was over 1000 nM.

And the IC50 [2, 6]?
Its IC50 is 100 to 1000 nM.

And the IC50 [3, 8]?
The IC50 was under 100 nM.

And the IC50 [3, 15]?
Its IC50 is 12 nM.

What does the source list for `COc1ncc2cc1NS(=O)(=O)c1cccc(c1)C(=O)NCC1=CC=C(S1)c1ccnc3c1SC2=C3C` [compound 101]?
IC50 [1, 10]: > 1000 nM; IC50 [2, 11]: 26 nM; IC50 [2, 12]: < 100 nM; IC50 [3, 13]: 21 nM; IC50 [3, 14]: < 100 nM

`COc1ncc2cc1NS(=O)(=O)c1cccc(c1)C(=O)NCC1CCN(CC1)c1ccnc3ccc-2cc13` [compound 6] was tested. Which IC50 [1, 4] did it give?
The IC50 was under 100 nM.

And the IC50 [1, 5]?
Its IC50 is 72 nM.

And the IC50 [2, 6]?
The IC50 was under 100 nM.

And the IC50 [2, 7]?
The IC50 was 11 nM.

And the IC50 [3, 8]?
Its IC50 is over 1000 nM.

How did the IC50 [1, 10] turn out when `COc1ncc2cc1NS(=O)(=O)c1cccc(c1)C(=O)NC[C@@H]1CCN(C1)c1ncnc3c1SC2=C3` [compound 86] was run?
The IC50 was over 1000 nM.

What about the IC50 [2, 12] of the same compound?
The IC50 was over 1000 nM.

What about the IC50 [3, 14] of the same compound?
The IC50 was 100 to 1000 nM.
